What is called melting point is the temperature of the solid-liquid transition.

Regarding `C[C@H]1CN(C2=NC(=O)/C(=C/c3cccc(-c4cc(F)c(O)c(C56CC7CC(CC(C7)C5)C6)c4)c3)S2)C[C@H](C)O1` (relative stereo) [Compound 50, 5-[3-(3-Adamantan-1-yl-4-hydroxy-5-fluoro-phenyl)benzylidene]-2-(trans-2,6-dimethylmorpholin-4-yl)-thiazol-4-one], the melting point was in the range of 262 to 264 °C. In turn, `O=C1N=C(N2CCOCC2)S/C1=C\c1cccc(-c2ccc(O)c(C34CC5CC(CC(C5)C3)C4)c2)c1` [Compound 2, 5-[3-(3-Adamantan-1-yl-4-hydroxy-phenyl)benzylidene]-2-morpholin-4-yl-thiazol-4-one] had a melting point of 325 to 328 °C.

Compound `O=C1N=C(N2CCCCC2)S/C1=C\c1ccc(-c2ccc(O)c(C34CC5CC(CC(C5)C3)C4)c2)cc1` [Compound 4, 5-[4-(3-Adamantan-1-yl-4-hydroxy-phenyl)benzylidene]-2-piperidin-1yl-thiazol-4-one] had a melting point of 325 to 328 °C. For the compound `CN1CCN(C2=NC(=O)/C(=C/c3cccc(-c4ccc(O)c(C56CC7CC(CC(C7)C5)C6)c4)c3)S2)CC1` [Compound 8, 5-[3-(3-Adamantan-1-yl-4-hydroxy-phenyl)benzylidene]-2-(4-methyl-piperazin-1-yl)-thiazol-4-one], the melting point was 291 to 294 °C. `CN1CCN(C2=NC(=O)/C(=C/c3cccc(-c4cc(F)c(O)c(C56CC7CC(CC(C7)C5)C6)c4)c3)S2)CC1` [Compound 9, 5-[3-(3-Adamantan-1-yl-4-hydroxy-5-fluoro-phenyl)benzylidene]-2-(4-methyl-piperazin-1-yl)-thiazol-4-one] had a melting point of 226 to 228 °C. As for `CCN(CC)C1=NC(=O)/C(=C/c2cccc(-c3ccc(O)c(C45CC6CC(CC(C6)C4)C5)c3)c2)S1` [Compound 10, 5-[3-(3-Adamantan-1-yl-4-hydroxy-phenyl)benzylidene]-2-diethylamino-thiazol-4-one], the melting point was in the range of 275 to 277 °C.

`O=C1N=C(N2CCCC2)S/C1=C\c1cccc(-c2cc(F)c(O)c(C34CC5CC(CC(C5)C3)C4)c2)c1` [Compound 13, 5-[3-(3-Adamantan-1-yl-4-hydroxy-5-fluoro-phenyl)benzylidene]-2-pyrrolidine-1-yl-thiazol-4-one-thiazol-4-one]: the melting point was in the range of 309 to 311 °C. The value for `O=C1N=C(N2CCCCCC2)S/C1=C\c1cccc(-c2ccc(O)c(C34CC5CC(CC(C5)C3)C4)c2)c1` [Compound 14, 5-[3-(3-Adamantan-1-yl-4-hydroxy-phenyl)benzylidene]-2-azepan-1-yl-thiazol-4-one] was 321 to 324 °C; that for `O=C1N=C(N2CCCCCCC2)S/C1=C\c1cccc(-c2ccc(O)c(C34CC5CC(CC(C5)C3)C4)c2)c1` [Compound 16, 5-[3-(3-Adamantan-1-yl-4-hydroxy-phenyl)benzylidene]-2-azocan-1-yl-thiazol-4-one] was 284 to 286 °C; that for `O=C1N=C(N2CCN(c3cccc(C(F)(F)F)c3)CC2)S/C1=C\c1cccc(-c2cc(F)c(O)c(C34CC5CC(CC(C5)C3)C4)c2)c1` [Compound 19, 5-[3-(3-Adamantan-1-yl-4-hydroxy-5-fluoro-phenyl)benzylidene]-2-[4-(3-trifluoromethyl-phenyl)-piperazon-1-yl]-thiazol-4-one] was 291 to 293 °C. `CN(C)CCN(Cc1ccccc1)C1=NC(=O)/C(=C/c2cccc(-c3cc(F)c(O)c(C45CC6CC(CC(C6)C4)C5)c3)c2)S1` [Compound 20, 5-[3-(3-Adamantan-1-yl-4-hydroxy-5-fluoro-phenyl)benzylidene]-2[benzyl-(2-dimethylamino-ethyl)-amino]-thiazol-4-one] showed a melting point of 242 to 246 °C. Compound `O=C1N=C(NCCN2CCOCC2)S/C1=C\c1cccc(-c2cc(F)c(O)c(C34CC5CC(CC(C5)C3)C4)c2)c1` [Compound 24, 5-[3-(3-Adamantan-1-yl-4-hydroxy-5-fluoro-phenyl)benzylidene]-2-(2-morpholino-1-yl-ethylamino)-thiazol-4-one] gave a melting point of 180 to 193 °C.

`O=C1N=C(N2CCCCC2)S/C1=C\c1cccc(-c2ccc(O)c(C(=O)c3ccccc3)c2)c1` [Compound 26, 5-[3-(3-Benzoyl-4-hydroxy-phenyl)benzylidene]-2-piperidin-1-yl-thiazol-4-one] gave a melting point of 135 to 138 °C. For `O=C1N=C(N2CCNCC2)S/C1=C\c1cccc(-c2cc(F)c(O)c(C34CC5CC(CC(C5)C3)C4)c2)c1` [Compound 31, 5-[3-(3-Adamantan-1-yl-4-hydroxy-5-fluoro-phenyl)benzylidene]-2piperazin-1-yl-thiazol-4-one], the melting point fell in the range of 230 to 233 °C. `Cc1cc(O)c(C23CC4CC(CC(C4)C2)C3)cc1-c1cccc(/C=C2\SC(N3CCOCC3)=NC2=O)c1` [Compound 33, 5-[3-(3-Adamantan-1-yl-4-hydroxy-6-methyl-phenyl)benzylidene]-2-morpholin-4-yl-thiazol-4-one]: the melting point is 327 to 329 °C. `O=C1N=C(N2CCOCC2)S/C1=C\c1ccc(-c2ccnc(C34CC5CC(CC(C5)C3)C4)n2)cc1` [Compound 41, 5-[4-(2-Adamantan-1-yl-pyrimidin-4-yl)-benzylidene]-2-morpholin-4-yl-thiazol-4-one]: the melting point was 283 to 285 °C. The compound `CSC1=NC(=O)/C(=C/c2cccc(-c3cc(F)c(O)c(C45CC6CC(CC(C6)C4)C5)c3)c2)S1` [Compound 51, 5-[3-(3-Adamantan-1-yl-4-hydroxy-5-fluorophenyl)benzylidene]-2-methylsulfanyl-thiazol-4-one] yielded a melting point of 270 to 271 °C. Take `O=C1N=C(NO)S/C1=C\c1cccc(-c2cc(F)c(O)c(C34CC5CC(CC(C5)C3)C4)c2)c1` [Compound 52, 5-[3-(3-Adamantan-1-yl-4-hydroxy-5-fluorophenyl)benzylidene]-2-hydroxyamino-thiazol-4-one]: the melting point was 238 to 240 °C. The value for `O=C1N=C(N2CCC[C@H]2C(=O)O)S/C1=C\c1cccc(-c2cc(F)c(O)c(C34CC5CC(CC(C5)C3)C4)c2)c1` [Compound 53, 5-[3-(3-Adamantan-1-yl-4-hydroxy-5-fluoro-phenyl)benzylidene]-2-(2-(S)-carboxy-1-yl)-thiazol-4-one] was 195 to 198 °C; that for `O=C1N=C(N2CCCC2)S/C1=C\c1ccc(-c2cc(F)c(O)c(C34CC5CC(CC(C5)C3)C4)c2)s1` [Compound 59, 5-[5-(3-Adamantan-1-yl-4-hydroxy-5-fluoro-phenyl)-thiophene-2-yl-methylene]-2-pyrrolidine-1-yl-thiazol-4-one] was 312 to 315 °C; that for `CN(C)c1ccc(/C=C2\SC(N3CCCC3)=NC2=O)cc1-c1cc(F)c(O)c(C23CC4CC(CC(C4)C2)C3)c1` [Compound 61, 5-[3-(3-Adamantan-1-yl-4-hydroxy-5-fluoro-phenyl)-4-dimethylamino-benzylidene]-2-pyrrolidin-1-yl-thiazol-4-one] was 294 to 298 °C. As for `O=C1N=C(N2CCOCC2)S/C1=C\c1ccc(OC(F)(F)F)c(-c2cc(F)c(O)c(C34CC5CC(CC(C5)C3)C4)c2)c1` [Compound 62, 5-[3-(3-Adamantan-1-yl-4-hydroxy-5-fluoro-phenyl)-4-trifluoromethoxy-benzylidene]-2-morpholin-4-yl-thiazol-4-one], the figure is 238 °C; as for `O=C1N=C(N2CCOCC2)S/C1=C\c1cccc(-c2ccc(O)c(F)c2)c1` [Compound 64, 5-[3-(3-Fluoro-4-hydroxy-phenyl)-benzylidene]-2-morpholin-4-yl-thiazol-4-one], 233 to 235 °C; as for `O=C1N=C(NN2CCCC2)S/C1=C\c1cccc(-c2cc(F)c(O)c(C34CC5CC(CC(C5)C3)C4)c2)c1` [Compound 69, 5-[3-(3-Adamantan-1-yl-4-hydroxy-5-fluoro-phenyl)benzylidene]-2-(pyrrolidin-1-ylamino)-thiazol-4-one], 293 to 296 °C. In the case of `N=C(N)NC1=NC(=O)/C(=C/c2cccc(-c3cc(F)c(O)c(C45CC6CC(CC(C6)C4)C5)c3)c2)S1` [Compound 70, 5-[3-(3-Adamantan-1-yl-4-hydroxy-5-fluorophenyl)benzylidene]-2-(N-guanidinyl)-thiazol-4-one], the melting point fell in the range of 288 to 290 °C. `CONC1=NC(=O)/C(=C/c2cccc(-c3cc(F)c(O)c(C45CC6CC(CC(C6)C4)C5)c3)c2)S1` [Compound 71, 5-[3-(3-Adamantan-1-yl-4-hydroxy-5-fluorophenyl)benzylidene]-2-methoxyamino-thiazol-4-one] gave a melting point of 286 to 288 °C.

`NC(=O)NNC1=NC(=O)/C(=C/c2cccc(-c3cc(F)c(O)c(C45CC6CC(CC(C6)C4)C5)c3)c2)S1` [Compound 72, 5-[3-(3-Adamantan-1-yl-4-hydroxy-5-fluorophenyl)benzylidene]-2-semicarbazid-1-yl-thiazol-4-one] had a melting point of 234 to 236 °C. As for `O=C1N=C(NN2CCOCC2)S/C1=C\c1cccc(-c2cc(F)c(O)c(C34CC5CC(CC(C5)C3)C4)c2)c1` [Compound 73, 5-[3-(3-Adamantan-1-yl-4-hydroxy-5-fluorophenyl)benzylidene]-2-(morpholin-4-yl-amino)-thiazol-4-one], the figure is 304 to 309 °C; as for `NNC1=NC(=O)/C(=C/c2cccc(-c3cc(F)c(O)c(C45CC6CC(CC(C6)C4)C5)c3)c2)S1` [Compound 74, 5-[3-(3-Adamantan-1-yl-4-hydroxy-5-fluorophenyl)benzylidene]-2-hydrazino-thiazol-4-one], 303 to 308 °C; as for `O=C1N=C(N2CCC[C@@H]2C(=O)O)S/C1=C\c1cccc(-c2cc(F)c(O)c(C34CC5CC(CC(C5)C3)C4)c2)c1` [Compound 76, 5-[3-(3-Adamantan-1-yl-4-hydroxy-5-fluoro-phenyl)benzylidene]-2-(2-(R)-carboxy-1-yl)-thiazol-4-one], 164 to 168 °C. In turn, `CC1(C)COc2ccc(-c3cncc(/C=C4\SC(N5CCOCC5)=NC4=O)c3)cc21` [Compound 82, 5-[5-(3,3-Dimethyl-2,3-dihydro-benzofuran-5-yl)-pyridin-3-ylmethylene]-2-morpholin-4-yl-thiazol-4-one] returned a melting point of 230 to 233 °C.

The values are drawn from patent US20040097566A1, “2-Substituted thiazolidinone and oxazolidinone derivatives for the inhibition of phosphatases and the treatment of cancer” (priority 2001, published 2004).
